Source: ChEMBL document CHEMBL1201862, “PubChem BioAssay data set” (2004)
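96-well plates; 48 h exposure; 5 concentrations. Endpoints by linear interpolation between flanking doses. Not reached: highest tested concentration assigned. Here, GI50 denotes the concentration required for 50% inhibition of growth.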 Calls of active or inactive are those of the source. No stated cut-off is given here; in the data, active = GI50 up to about 1.1 µM and inactive = higher.

Columns and labels:
Experiment in all cases: inhibition of tumour cell growth, NCI panel, 48 h
IGROV-1 = tested on: IGROV-1
K562 = tested on: K562
ACHN = tested on: ACHN
DU-145 = tested on: DU-145
RPMI-8226 = tested on: RPMI-8226
CAKI-1 = tested on: CAKI-1
Hs-578T = tested on: Hs-578T
BT-549 = tested on: BT-549
SNB-75 = tested on: SNB-75
786-0 = tested on: 786-0
M14 = tested on: M14
UO-31 = tested on: UO-31
SF-295 = tested on: SF-295
UACC-257 = tested on: UACC-257
MDA-N = tested on: MDA-N
UACC-62 = tested on: UACC-62
COLO 205 = tested on: COLO 205
SK-MEL-5 = tested on: SK-MEL-5
Malme-3M = tested on: Malme-3M

Compound | GI50 (IGROV-1) | GI50 (K562) | GI50 (ACHN) | GI50 (DU-145) | GI50 (RPMI-8226) | GI50 (CAKI-1) | GI50 (Hs-578T) | GI50 (BT-549) | GI50 (SNB-75) | GI50 (786-0) | GI50 (M14) | GI50 (UO-31) | GI50 (SF-295) | GI50 (UACC-257) | GI50 (MDA-N) | GI50 (UACC-62) | GI50 (COLO 205) | GI50 (SK-MEL-5) | GI50 (Malme-3M)
COC(=O)c1cnc(Cl)c([N+](=O)[O-])c1 | 2.79 µM (inactive) | 2.44 µM (inactive) | 12.6 µM (inactive) | 9.57 µM (inactive) | 2.52 µM (inactive) | 11.2 µM (inactive) | 22.4 µM (inactive) | 17.9 µM (inactive) | 20.4 µM (inactive) | 3.57 µM (inactive) | 14 µM (inactive) | 1.96 µM (inactive) | 19 µM (inactive) | 7.41 µM (inactive) | 7.6 µM (inactive) | 16.8 µM (inactive) | 3.54 µM (inactive) | 14.1 µM (inactive) | –
CC(=O)Nc1ccc(N2C(=O)CS(=O)(=O)C2c2cccc(Oc3ccccc3)c2)cc1 (stereo not given) | – | 18.8 µM (inactive) | 16.6 µM (inactive) | 33.7 µM (inactive) | – | – | 28.9 µM (inactive) | 16.8 µM (inactive) | 19.4 µM (inactive) | 17.1 µM (inactive) | 18 µM (inactive) | 17.5 µM (inactive) | 17 µM (inactive) | 16.8 µM (inactive) | 16.8 µM (inactive) | 13.4 µM (inactive) | 17.2 µM (inactive) | 14.7 µM (inactive) | 20.4 µM (inactive)
Cc1cccc(C)c1NC(=O)C(=O)C(c1ccccc1Cl)S(=O)(=O)Cc1ccccc1Cl (stereo not given) | > 62.4 µM (inactive) | > 100 µM (inactive) | 53.3 µM (inactive) | > 100 µM (inactive) | > 100 µM (inactive) | 39.3 µM (inactive) | 41.4 µM (inactive) | 35.7 µM (inactive) | 11.2 µM (inactive) | 27.7 µM (inactive) | > 100 µM (inactive) | > 100 µM (inactive) | 23.7 µM (inactive) | > 100 µM (inactive) | > 100 µM (inactive) | 31.7 µM (inactive) | > 100 µM (inactive) | > 100 µM (inactive) | –
Cc1ccc2sc3ccc(N)cc3c(=O)c2c1 | 33.8 µM (inactive) | 37.6 µM (inactive) | 37.8 µM (inactive) | 53 µM (inactive) | – | 30.7 µM (inactive) | 47.2 µM (inactive) | 51.9 µM (inactive) | – | 54.5 µM (inactive) | 90.2 µM (inactive) | 29 µM (inactive) | 40.4 µM (inactive) | > 100 µM (inactive) | 26.8 µM (inactive) | 51.9 µM (inactive) | 42.5 µM (inactive) | 51.9 µM (inactive) | –
C[n+]1c(-c2ccccc2)cc2/c(=C\c3ccc([N+](=O)[O-])cc3)c3ccccc3n21 | 1.39 µM (inactive) | – | 3.1 µM (inactive) | 1.74 µM (inactive) | – | 15.8 µM (inactive) | 1.29 µM (inactive) | 0.281 µM (active) | 3.18 µM (inactive) | 1.52 µM (inactive) | 5.24 µM (inactive) | 6.05 µM (inactive) | 3.21 µM (inactive) | 4.99 µM (inactive) | 2.37 µM (inactive) | 6.35 µM (inactive) | 0.532 µM (active) | 1.95 µM (inactive) | –
O=[N+]([O-])C[C@@]12O[C@]3(O)C4C5CC(C6C5C3C61)C42 (stereo not given in full) | > 100 µM (inactive) | > 100 µM (inactive) | > 100 µM (inactive) | > 100 µM (inactive) | > 100 µM (inactive) | > 100 µM (inactive) | > 100 µM (inactive) | > 100 µM (inactive) | > 100 µM (inactive) | > 100 µM (inactive) | > 100 µM (inactive) | > 100 µM (inactive) | > 100 µM (inactive) | > 100 µM (inactive) | – | > 100 µM (inactive) | > 100 µM (inactive) | > 100 µM (inactive) | > 100 µM (inactive)
Cc1ccc(C(=O)Nc2ccc(CP(=O)(O)O)cc2)cc1NC(=O)Nc1cc(C(=O)Nc2ccc(CP(=O)(O)O)cc2)ccc1C | > 100 µM (inactive) | – | – | > 100 µM (inactive) | > 100 µM (inactive) | > 100 µM (inactive) | > 100 µM (inactive) | > 100 µM (inactive) | > 100 µM (inactive) | > 100 µM (inactive) | > 100 µM (inactive) | > 100 µM (inactive) | > 100 µM (inactive) | > 100 µM (inactive) | > 100 µM (inactive) | > 100 µM (inactive) | > 100 µM (inactive) | > 100 µM (inactive) | > 100 µM (inactive)
COc1ccc(-c2nnc3n(C)c4ccccc4n3c2=O)cc1 | 51.5 µM (inactive) | – | 63 µM (inactive) | > 100 µM (inactive) | – | 76 µM (inactive) | 33 µM (inactive) | 72.4 µM (inactive) | 20.8 µM (inactive) | 37.2 µM (inactive) | > 100 µM (inactive) | 42.8 µM (inactive) | 29.7 µM (inactive) | > 100 µM (inactive) | > 100 µM (inactive) | – | > 100 µM (inactive) | > 100 µM (inactive) | > 100 µM (inactive)
